From US20190127366A1 (LifeSci Pharmaceuticals, Inc., priority 2015, published 2019)

These compounds were tested against T1, human complement factor D (Homo sapiens, UniProt P00746) (assay: In vitro enzyme inhibition (Z-Lys-SBzl/DTNB absorbance assay)). Conditions: Complement Factor D (R&D Systems), substrate Z-Lys-SBzl, A405 nm; read-out: CFD IC50.
T1 construct: purchased R&D Systems 1824-SE
Type: biochemical
In short: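 Factor D (6.25 ng/μL before addition) preincubated 5 min RT with compound (8 points from 50 μM, 6-fold, 0.5% DMSO final) in 50 mM Tris/HCl pH 7.5, 1 M NaCl, then Z-Lys-SBzl/DTNB added (200 μM each before addition). A405 read kinetically every 30 s for 60 min; IC50 from variable-slope fit, controls with and without enzyme.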

T1 sequence (P00746 26-253): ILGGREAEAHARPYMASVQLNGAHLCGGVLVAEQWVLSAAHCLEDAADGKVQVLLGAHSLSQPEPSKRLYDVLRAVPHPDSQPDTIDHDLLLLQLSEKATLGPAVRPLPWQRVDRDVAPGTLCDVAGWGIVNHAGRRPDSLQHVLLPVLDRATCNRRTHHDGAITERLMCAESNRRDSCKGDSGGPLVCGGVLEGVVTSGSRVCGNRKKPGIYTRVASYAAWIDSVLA

IC50 [nM] | Compound
> 10000 | O=C(O)c1nn(CC(=O)N2[C@@H]3CC[C@@H](C3)[C@H]2C(=O)Nc2cccc(Cl)n2)c2ccccc12 [Example 84, 1-(2-((1R,3S,4S)-3-((6-chloropyridin-2-yl)carbamoyl)-2-azabicyclo[2.2.1]heptan-2-yl)-2-oxoethyl)-1H-indazole-3-carboxylic acid]
> 10000 | CC(O)c1nn(CC(=O)N2[C@@H]3CC[C@@H](C3)[C@H]2C(=O)Nc2cccc(Cl)n2)c2ccccc12 (stereo partly drawn) [Example 85, (1R,3S,4S)-N-(6-chloropyridin-2-yl)-2-(2-(3-(1-hydroxyethyl)-1H-indazol-1-yl)acetyl)-2-azabicyclo[2.2.1]heptane-3-carboxamide]
> 10000 | O=C(Nc1cccc(Cl)n1)[C@@H]1[C@H]2CC[C@H](C2)N1C(=O)Cn1nc(C(=O)N2CCC2)c2ccccc21 [Example 86, (1R,3S,4S)-2-(2-(3-(azetidine-1-carbonyl)-1H-indazol-1-yl)acetyl)-N-(6-chloropyridin-2-yl)-2-azabicyclo[2.2.1]heptane-3-carboxamide]
100 to 1000 | CC(=O)c1nn(CC(=O)N2[C@@H]3CC[C@@H](C3)[C@H]2C(=O)Nc2cccc(Cl)n2)c2ccc(Cl)cc12 [Example 87, (1R,3S,4S)-2-(2-(3-acetyl-5-chloro-1H-indazol-1-yl)acetyl)-N-(6-chloropyridin-2-yl)-2-azabicyclo[2.2.1]heptane-3-carboxamide]
1000 to 10000 | CNC(=O)c1nn(CC(=O)N2[C@@H]3CC[C@@H](C3)[C@H]2C(=O)Nc2cccc(Cl)n2)c2ccccc12 [Example 88, 1-(2-((1R,3S,4S)-3-((6-chloropyridin-2-yl)carbamoyl)-2-azabicyclo[2.2.1]heptan-2-yl)-2-oxoethyl)-N-methyl-1H-indazole-3-carboxamide]
1000 to 10000 | O=C(NCCO)c1nn(CC(=O)N2[C@@H]3CC[C@@H](C3)[C@H]2C(=O)Nc2cccc(Cl)n2)c2ccccc12 [Example 89, 1-(2-((1R,3S,4S)-3-((6-chloropyridin-2-yl)carbamoyl)-2-azabicyclo[2.2.1]heptan-2-yl)-2-oxoethyl)-N-(2-hydroxyethyl)-1H-indazole-3-carboxamide]
100 to 1000 | CC(=O)c1nn(CC(=O)N2[C@@H]3CC[C@@H](C3)[C@H]2C(=O)Nc2cccc(Cl)n2)c2ccc(Br)cc12 [Example 90, (1R,3S,4S)-2-(2-(3-acetyl-5-bromo-1H-indazol-1-yl)acetyl)-N-(6-chloropyridin-2-yl)-2-azabicyclo[2.2.1]heptane-3-carboxamide]
100 to 1000 | CC(=O)c1nn(CC(=O)N2[C@@H]3CC[C@@H](C3)[C@H]2C(=O)Nc2cccc(Cl)n2)c2ccc(F)cc12 [Example 91, (1R,3S,4S)-2-(2-(3-acetyl-5-fluoro-1H-indazol-1-yl)acetyl)-N-(6-chloropyridin-2-yl)-2-azabicyclo[2.2.1]heptane-3-carboxamide]
100 to 1000 | CC(=O)c1nn(CC(=O)N2[C@@H]3CC[C@@H](C3)[C@H]2C(=O)Nc2cccc(Cl)n2)c2ccc(C#N)cc12 [Example 92, (1R,3S,4S)-2-(2-(3-acetyl-5-cyano-1H-indazol-1-yl)acetyl)-N-(6-chloropyridin-2-yl)-2-azabicyclo[2.2.1]heptane-3-carboxamide]
1000 to 10000 | NC(=O)Cc1nn(CC(=O)N2[C@@H]3CC[C@@H](C3)[C@H]2C(=O)Nc2cccc(Cl)n2)c2ccccc12 [Example 94, (1R,3S,4S)-2-(2-(3-(2-amino-2-oxoethyl)-1H-indazol-1-yl)acetyl)-N-(6-chloropyridin-2-yl)-2-azabicyclo[2.2.1]heptane-3-carboxamide]
100 to 1000 | NC(=O)c1nn(CC(=O)N2[C@@H]3CC[C@@H](C3)[C@H]2C(=O)Nc2cccc(Cl)n2)c2ccncc12 [Example 95, 1-(2-((1R,3S,4S)-3-((6-chloropyridin-2-yl)carbamoyl)-2-azabicyclo[2.2.1]heptan-2-yl)-2-oxoethyl)-1H-pyrazolo[4,3-c]pyridine-3-carboxamide]
100 to 1000 | COc1cc(Cl)nc(NC(=O)[C@@H]2[C@H]3CC[C@H](C3)N2C(=O)Cn2nc(C(N)=O)c3ccccc32)c1 [Example 97, 1-(2-((1R,3S,4S)-3-((6-chloro-4-methoxypyridin-2-yl)carbamoyl)-2-azabicyclo[2.2.1]heptan-2-yl)-2-oxoethyl)-1H-indazole-3-carboxamide]
1000 to 10000 | NC(=O)c1nn(CC(=O)N2[C@@H]3CC[C@@H](C3)[C@H]2C(=O)NCc2cccc(Cl)c2F)c2ccncc12 [Example 98, 1-(2-((1R,3S)-3-((3-chloro-2-fluorobenzyl)carbamoyl)-2-azabicyclo[2.2.1]heptan-2-yl)-2-oxoethyl)-1H-pyrazolo[4,3-c]pyridine-3-carboxamide]
100 to 1000 | NC(=O)n1cc(CC(=O)N2[C@@H]3CC[C@@H](C3)[C@H]2C(=O)NCc2cccc(Cl)c2F)c2ccccc21 [Example 99, 3-(2-((1R,3S,4S)-3-((3-chloro-2-fluorobenzyl)carbamoyl)-2-azabicyclo[2.2.1]heptan-2-yl)-2-oxoethyl)-1H-indole-1-carboxamide]
100 to 1000 | NC(=O)n1nc(CC(=O)N2[C@@H]3CC[C@@H](C3)[C@H]2C(=O)NCc2cccc(Cl)c2F)c2ccccc21 [Example 100, 3-(2-((1R,3S,4S)-3-((3-chloro-2-fluorobenzyl)carbamoyl)-2-azabicyclo[2.2.1]heptan-2-yl)-2-oxoethyl)-1H-indazole-1-carboxamide]
100 to 1000 | N#Cc1ccc(Cl)nc1NC(=O)[C@@H]1[C@H]2CC[C@H](C2)N1C(=O)Cn1nc(C(N)=O)c2ccccc21 [Example 101, 1-(2-((1R,3S,4S)-3-((6-chloro-3-cyanopyridin-2-yl)carbamoyl)-2-azabicyclo[2.2.1]heptan-2-yl)-2-oxoethyl)-1H-indazole-3-carboxamide]
100 to 1000 | N#Cc1cc(Cl)nc(NC(=O)[C@@H]2[C@H]3CC[C@H](C3)N2C(=O)Cn2nc(C(N)=O)c3ccccc32)c1 [Example 102, 1-(2-((1R,3S,4S)-3-((6-chloro-4-cyanopyridin-2-yl)carbamoyl)-2-azabicyclo[2.2.1]heptan-2-yl)-2-oxoethyl)-1H-indazole-3-carboxamide]
100 to 1000 | COC(=O)c1cc(Cl)nc(NC(=O)[C@@H]2[C@H]3CC[C@H](C3)N2C(=O)Cn2nc(C(N)=O)c3ccccc32)c1 [Example 103, methyl 2-((1R,3S,4S)-2-(2-(3-carbamoyl-1H-indazol-1-yl)acetyl)-2-azabicyclo[2.2.1]heptane-3-carboxamido)-6-chloroisonicotinate]
100 to 1000 | NC(=O)c1nn(CC(=O)N2[C@@H]3CC[C@@H](C3)[C@H]2C(=O)Nc2cc(CO)cc(Cl)n2)c2ccccc12 [Example 105, 1-(2-((1R,3S,4S)-3-((6-chloro-4-(hydroxymethyl)pyridin-2-yl)carbamoyl)-2-azabicyclo[2.2.1]heptan-2-yl)-2-oxoethyl)-1H-indazole-3-carboxamide]
100 to 1000 | NC(=O)c1cc(Cl)nc(NC(=O)[C@@H]2[C@H]3CC[C@H](C3)N2C(=O)Cn2nc(C(N)=O)c3ccccc32)c1 [Example 106, 1-(2-((1R,3S,4S)-3-((4-carbamoyl-6-chloropyridin-2-yl)carbamoyl)-2-azabicyclo[2.2.1]heptan-2-yl)-2-oxoethyl)-1H-indazole-3-carboxamide]
1000 to 10000 | COC(=O)c1ccc(NC(=O)[C@@H]2[C@H]3CC[C@H](C3)N2C(=O)Cn2nc(C(N)=O)c3ccccc32)nc1Cl [Example 107, Methyl 6-((1R,3S,4S)-2-(2-(3-carbamoyl-1H-indazol-1-yl)acetyl)-2-azabicyclo[2.2.1]heptane-3-carboxamido)-2-chloronicotinate]
1000 to 10000 | NC(=O)c1nn(CC(=O)N2[C@@H]3CC[C@@H](C3)[C@H]2C(=O)Nc2ccc(CO)c(Cl)n2)c2ccccc12 [Example 108, 1-(2-((1R,3S,4S)-3-((6-chloro-5-(hydroxymethyl)pyridin-2-yl)carbamoyl)-2-azabicyclo[2.2.1]heptan-2-yl)-2-oxoethyl)-1H-indazole-3-carboxamide]
100 to 1000 | NC(=O)c1nn(CC(=O)N2[C@@H]3CC[C@@H](C3)[C@H]2C(=O)NCc2cc(Br)cc(Cl)c2F)c2ccccc12 [Example 109, 1-(2-((1R,3S,4S)-3-((5-bromo-3-chloro-2-fluorobenzyl)carbamoyl)-2-azabicyclo[2.2.1]heptan-2-yl)-2-oxoethyl)-1H-indazole-3-carboxamide]
1000 to 10000 | COC(=O)c1cc(Cl)c(F)c(CNC(=O)[C@@H]2[C@H]3CC[C@H](C3)N2C(=O)Cn2nc(C(N)=O)c3ccccc32)c1 [Example 110, methyl 3-(((1R,3S,4S)-2-(2-(3-carbamoyl-1H-indazol-1-yl)acetyl)-2-azabicyclo[2.2.1]heptane-3-carboxamido)methyl)-5-chloro-4-fluorobenzoate]
100 to 1000 | NC(=O)c1nn(CC(=O)N2[C@@H]3CC[C@@H](C3)[C@H]2C(=O)NCc2cc(C(=O)O)cc(Cl)c2F)c2ccccc12 [Example 111, 3-(((1R,3S,4S)-2-(2-(3-carbamoyl-1H-indazol-1-yl)acetyl)-2-azabicyclo[2.2.1]heptane-3-carboxamido)methyl)-5-chloro-4-fluorobenzoic acid]
1000 to 10000 | NC(=O)c1cc(Cl)c(F)c(CNC(=O)[C@@H]2[C@H]3CC[C@H](C3)N2C(=O)Cn2nc(C(N)=O)c3ccccc32)c1 [Example 112, 1-(2-((1R,3S,4S)-3-((5-carbamoyl-3-chloro-2-fluorobenzyl)carbamoyl)-2-azabicyclo[2.2.1]heptan-2-yl)-2-oxoethyl)-1H-indazole-3-carboxamide]
